In ChEMBL document CHEMBL4330132, “5-Keto-3-cyano-2,4-diaminothiophenes as selective maternal embryonic leucine zipper kinase inhibitors” (Bioorg Med Chem Lett, 2019):

Columns and labels:
[1] = target: TGF-beta receptor type-2 (Homo sapiens) (UniProt P37173); experiment: Binding affinity to wild-type human partial length TGFBR2 (I218 to K567 residues) expressed in bacterial expression system assessed as residual binding level at 1 uM by Kinomescan method relative to control
[2] = target: Serine/threonine-protein kinase PAK 5 (Homo sapiens) (UniProt Q9P286); experiment: Binding affinity to wild-type human partial length PAK7 (Y400 to H719 residues) expressed in bacterial expression system assessed as residual binding level at 1 uM by Kinomescan method relative to control
[3] = target: Ribosomal protein S6 kinase alpha-6 (Homo sapiens) (UniProt Q9UK32); experiment: Binding affinity to wild-type human partial length N-terminal RSK4 kinase domain 1 (M1 to E397 residues) expressed in mammalian expression system assessed as residual binding level at 1 uM by Kinomescan method relative to control
Chain of Ribosomal protein S6 kinase alpha-6 (Homo sapiens) (Q9UK32 whole entry, the tested form may be a part): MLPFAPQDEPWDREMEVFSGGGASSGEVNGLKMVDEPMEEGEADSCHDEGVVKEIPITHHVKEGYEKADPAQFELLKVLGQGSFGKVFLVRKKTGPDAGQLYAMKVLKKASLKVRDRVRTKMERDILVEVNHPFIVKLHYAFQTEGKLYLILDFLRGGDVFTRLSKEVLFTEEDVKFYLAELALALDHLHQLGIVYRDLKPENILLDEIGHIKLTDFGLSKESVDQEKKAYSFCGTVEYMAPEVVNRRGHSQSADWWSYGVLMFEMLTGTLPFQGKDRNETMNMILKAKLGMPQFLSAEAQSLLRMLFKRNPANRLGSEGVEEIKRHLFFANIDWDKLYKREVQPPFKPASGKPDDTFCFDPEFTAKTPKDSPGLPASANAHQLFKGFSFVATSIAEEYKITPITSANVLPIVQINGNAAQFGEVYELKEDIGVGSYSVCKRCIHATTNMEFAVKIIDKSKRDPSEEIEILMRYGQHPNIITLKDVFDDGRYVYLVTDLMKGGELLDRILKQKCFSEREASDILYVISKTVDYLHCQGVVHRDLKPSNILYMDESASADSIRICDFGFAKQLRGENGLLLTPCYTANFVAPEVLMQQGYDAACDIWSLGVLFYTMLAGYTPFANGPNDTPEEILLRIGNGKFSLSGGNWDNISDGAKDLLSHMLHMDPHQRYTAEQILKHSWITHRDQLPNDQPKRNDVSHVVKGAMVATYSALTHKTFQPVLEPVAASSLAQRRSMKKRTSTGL

[4] = target: Ribosomal protein S6 kinase alpha-6 (Homo sapiens) (UniProt Q9UK32); experiment: Binding affinity to wild-type human partial length C-terminal RSK4 kinase domain 2 (I401 to Y711 residues) expressed in bacterial expression system assessed as residual binding level at 1 uM by Kinomescan method relative to control
[5] = target: Inhibitor of nuclear factor kappa-B kinase subunit alpha (Homo sapiens) (UniProt O15111); experiment: Binding affinity to wild-type human full length IKK-alpha (M1 to E745 residues) expressed in mammalian expression system assessed as residual binding level at 1 uM by Kinomescan method relative to control
Chain of Inhibitor of nuclear factor kappa-B kinase subunit alpha (Homo sapiens) (O15111 whole entry, the tested form may be a part): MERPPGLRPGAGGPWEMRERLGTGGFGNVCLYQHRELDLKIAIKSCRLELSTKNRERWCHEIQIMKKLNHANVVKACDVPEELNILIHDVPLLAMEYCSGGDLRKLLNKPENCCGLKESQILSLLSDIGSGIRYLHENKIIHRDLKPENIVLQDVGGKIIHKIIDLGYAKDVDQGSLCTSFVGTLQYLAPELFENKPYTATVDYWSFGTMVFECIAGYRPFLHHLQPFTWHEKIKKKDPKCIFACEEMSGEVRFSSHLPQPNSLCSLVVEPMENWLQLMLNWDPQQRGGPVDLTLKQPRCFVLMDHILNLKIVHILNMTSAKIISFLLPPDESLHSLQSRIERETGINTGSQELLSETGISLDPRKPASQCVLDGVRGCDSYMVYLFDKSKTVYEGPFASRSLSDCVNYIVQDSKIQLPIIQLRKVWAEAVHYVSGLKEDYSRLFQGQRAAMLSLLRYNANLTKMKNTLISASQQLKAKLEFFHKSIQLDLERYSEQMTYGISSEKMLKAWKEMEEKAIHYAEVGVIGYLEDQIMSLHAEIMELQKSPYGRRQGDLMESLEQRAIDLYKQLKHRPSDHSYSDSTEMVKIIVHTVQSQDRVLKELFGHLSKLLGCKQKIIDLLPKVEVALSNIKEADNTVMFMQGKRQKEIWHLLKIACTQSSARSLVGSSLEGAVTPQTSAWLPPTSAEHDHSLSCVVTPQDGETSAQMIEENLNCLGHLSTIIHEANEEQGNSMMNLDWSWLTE

[6] = test system: Fibroblast growth factor receptor 3 (Homo sapiens), P22607 [G697C]; experiment: Binding affinity to human partial length FGFR3 G697C mutant (R442 to S771 residues) expressed in bacterial expression system assessed as residual binding level at 1 uM by Kinomescan method relative to control
[7] = target: Discoidin domain-containing receptor 2 (Homo sapiens) (UniProt Q16832); experiment: Binding affinity to wild-type human partial length DDR2 (V555 to E855 residues) expressed in mammalian expression system assessed as residual binding level at 1 uM by Kinomescan method relative to control
Chain of Discoidin domain-containing receptor 2 (Homo sapiens) (Q16832 whole entry, the tested form may be a part): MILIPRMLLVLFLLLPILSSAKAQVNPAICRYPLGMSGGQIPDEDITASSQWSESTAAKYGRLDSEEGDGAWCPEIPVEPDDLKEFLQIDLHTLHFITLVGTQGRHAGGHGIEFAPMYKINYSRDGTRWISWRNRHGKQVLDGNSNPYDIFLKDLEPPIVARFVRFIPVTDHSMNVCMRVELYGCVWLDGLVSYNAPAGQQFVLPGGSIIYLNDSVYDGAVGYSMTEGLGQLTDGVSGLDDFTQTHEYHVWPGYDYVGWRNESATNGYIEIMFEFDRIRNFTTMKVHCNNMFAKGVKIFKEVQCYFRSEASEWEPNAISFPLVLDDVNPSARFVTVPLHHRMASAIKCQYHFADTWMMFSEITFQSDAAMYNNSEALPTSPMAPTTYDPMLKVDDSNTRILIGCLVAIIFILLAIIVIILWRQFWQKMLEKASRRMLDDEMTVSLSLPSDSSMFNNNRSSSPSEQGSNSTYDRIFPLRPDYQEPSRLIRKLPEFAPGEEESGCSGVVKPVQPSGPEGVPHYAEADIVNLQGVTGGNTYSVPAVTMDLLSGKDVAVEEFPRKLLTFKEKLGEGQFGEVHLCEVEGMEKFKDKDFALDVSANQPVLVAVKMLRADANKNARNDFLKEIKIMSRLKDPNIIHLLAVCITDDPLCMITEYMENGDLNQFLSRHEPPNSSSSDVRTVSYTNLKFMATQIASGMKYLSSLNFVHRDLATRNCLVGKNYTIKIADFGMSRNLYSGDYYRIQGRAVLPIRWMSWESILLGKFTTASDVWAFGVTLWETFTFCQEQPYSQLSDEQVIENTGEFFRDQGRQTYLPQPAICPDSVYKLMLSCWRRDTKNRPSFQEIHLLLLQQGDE

[8] = target: Glycogen synthase kinase-3 beta (Homo sapiens) (UniProt P49841); experiment: Binding affinity to wild-type human full length GSK3B (M1 to T433 residues) expressed in mammalian expression system assessed as residual binding level at 1 uM by Kinomescan method relative to control
Chain of Glycogen synthase kinase-3 beta (Homo sapiens) (P49841 whole entry, looked up, the tested form may be a part): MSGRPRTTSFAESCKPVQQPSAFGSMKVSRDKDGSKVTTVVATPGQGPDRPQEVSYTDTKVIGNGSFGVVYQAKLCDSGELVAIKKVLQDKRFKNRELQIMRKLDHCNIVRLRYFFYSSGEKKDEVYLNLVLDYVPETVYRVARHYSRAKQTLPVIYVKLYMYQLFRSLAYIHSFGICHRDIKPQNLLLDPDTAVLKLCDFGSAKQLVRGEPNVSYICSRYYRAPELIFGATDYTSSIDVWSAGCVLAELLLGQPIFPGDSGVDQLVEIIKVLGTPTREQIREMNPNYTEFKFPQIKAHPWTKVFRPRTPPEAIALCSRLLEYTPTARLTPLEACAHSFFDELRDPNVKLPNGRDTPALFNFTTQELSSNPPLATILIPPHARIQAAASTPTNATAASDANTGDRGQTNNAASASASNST

[9] = test system: Hepatocyte growth factor receptor (Homo sapiens), P08581 [Y1235D]; experiment: Binding affinity to human partial length MET Y1235D mutant (D1010 to S1367 residues) expressed in bacterial expression system assessed as residual binding level at 1 uM by Kinomescan method relative to control
[10] = test system: Epidermal growth factor receptor (Homo sapiens), P00533 [G719S]; experiment: Binding affinity to human partial length EGFR G719S mutant (R669 to V1011 residues) expressed in bacterial expression system assessed as residual binding level at 1 uM by Kinomescan method relative to control
[11] = target: Serine/threonine-protein kinase N1 (Homo sapiens) (UniProt Q16512); experiment: Binding affinity to wild-type human partial length PKN1 (E598 to C948 residues) expressed in bacterial expression system assessed as residual binding level at 1 uM by Kinomescan method relative to control
[12] = test system: Epidermal growth factor receptor (Homo sapiens), P00533 [UNDEFINED MUTATION]; experiment: Binding affinity to human partial length EGFR E746-A750del mutant expressed in bacterial expression system assessed as residual binding level at 1 uM by Kinomescan method relative to control
[13] = target: Ribosomal protein S6 kinase alpha-1 (Homo sapiens) (UniProt Q15418); experiment: Binding affinity to wild-type human partial length N-terminal RSK1 Kinase domain 1 (M1 to E388 residues) expressed in bacterial expression system assessed as residual binding level at 1 uM by Kinomescan method relative to control
Chain of Ribosomal protein S6 kinase alpha-1 (Homo sapiens) (Q15418 whole entry, the tested form may be a part): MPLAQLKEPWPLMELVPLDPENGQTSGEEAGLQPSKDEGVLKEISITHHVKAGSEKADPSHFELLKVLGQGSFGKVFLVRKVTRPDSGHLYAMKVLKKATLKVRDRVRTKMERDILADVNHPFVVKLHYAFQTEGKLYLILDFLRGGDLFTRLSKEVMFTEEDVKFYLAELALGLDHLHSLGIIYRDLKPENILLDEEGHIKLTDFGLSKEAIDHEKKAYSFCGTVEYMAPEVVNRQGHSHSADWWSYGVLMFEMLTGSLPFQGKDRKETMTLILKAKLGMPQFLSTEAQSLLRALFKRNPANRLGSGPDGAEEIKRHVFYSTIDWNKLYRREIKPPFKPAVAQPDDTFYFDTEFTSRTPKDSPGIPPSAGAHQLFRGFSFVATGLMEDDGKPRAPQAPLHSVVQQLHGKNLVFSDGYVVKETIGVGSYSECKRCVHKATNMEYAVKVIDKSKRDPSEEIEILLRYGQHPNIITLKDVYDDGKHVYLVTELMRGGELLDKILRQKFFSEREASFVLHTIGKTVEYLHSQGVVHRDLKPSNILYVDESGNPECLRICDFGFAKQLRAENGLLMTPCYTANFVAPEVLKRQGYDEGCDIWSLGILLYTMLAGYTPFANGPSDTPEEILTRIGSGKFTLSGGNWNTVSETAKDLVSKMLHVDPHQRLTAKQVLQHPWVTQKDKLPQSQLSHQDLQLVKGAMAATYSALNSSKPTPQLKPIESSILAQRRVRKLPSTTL

[14] = target: Myosin light chain kinase (Homo sapiens) (UniProt Q32MK0); experiment: Binding affinity to wild-type human partial length MLCK (D488 to K800 residues) expressed in bacterial expression system assessed as residual binding level at 1 uM by Kinomescan method relative to control
Chain of Myosin light chain kinase (Homo sapiens) (Q32MK0 whole entry, the tested form may be a part): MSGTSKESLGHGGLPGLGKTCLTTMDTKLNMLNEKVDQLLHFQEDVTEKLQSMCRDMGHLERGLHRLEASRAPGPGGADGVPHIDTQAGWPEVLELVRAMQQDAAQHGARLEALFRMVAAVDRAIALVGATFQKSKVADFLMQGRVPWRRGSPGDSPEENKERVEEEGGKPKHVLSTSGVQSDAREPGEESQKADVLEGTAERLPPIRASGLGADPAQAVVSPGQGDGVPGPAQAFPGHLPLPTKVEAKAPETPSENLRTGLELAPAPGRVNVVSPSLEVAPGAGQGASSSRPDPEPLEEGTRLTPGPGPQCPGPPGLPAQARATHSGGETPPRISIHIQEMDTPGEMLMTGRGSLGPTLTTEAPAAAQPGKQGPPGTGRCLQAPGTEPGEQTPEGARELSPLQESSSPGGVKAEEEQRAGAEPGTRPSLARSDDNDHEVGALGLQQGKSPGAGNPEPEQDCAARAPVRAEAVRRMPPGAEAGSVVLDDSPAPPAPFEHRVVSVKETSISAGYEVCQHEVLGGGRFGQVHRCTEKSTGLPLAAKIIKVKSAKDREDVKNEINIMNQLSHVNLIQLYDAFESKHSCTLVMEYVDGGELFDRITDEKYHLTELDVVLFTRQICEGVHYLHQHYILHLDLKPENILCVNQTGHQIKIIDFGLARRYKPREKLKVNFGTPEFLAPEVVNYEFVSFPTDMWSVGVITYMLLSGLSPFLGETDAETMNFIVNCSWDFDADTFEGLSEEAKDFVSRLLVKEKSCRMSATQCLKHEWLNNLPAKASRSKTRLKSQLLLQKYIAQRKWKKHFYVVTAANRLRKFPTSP

[15] = target: cAMP-dependent protein kinase catalytic subunit PRKX (Homo sapiens) (UniProt P51817); experiment: Binding affinity to wild-type human partial length PRKX (M1 to F358 residues) expressed in bacterial expression system assessed as residual binding level at 1 uM by Kinomescan method relative to control
[16] = test system: Serine/threonine-protein kinase B-raf (Homo sapiens), P15056 [V600E]; experiment: Binding affinity to human partial length BRAF V600E mutant (S429 to E741 residues) expressed in mammalian expression system assessed as residual binding level at 1 uM by Kinomescan method relative to control
[17] = target: Phosphatidylinositol 4,5-bisphosphate 3-kinase catalytic subunit delta isoform (Homo sapiens) (UniProt O00329); experiment: Binding affinity to wild-type human partial length PIK3CD (R108 to Q1044 residues) expressed in mammalian expression system assessed as residual binding level at 1 uM by Kinomescan method relative to control
[18] = target: Ankyrin repeat and protein kinase domain-containing protein 1 (Homo sapiens) (UniProt Q8NFD2); experiment: Binding affinity to wild-type human partial length ANKK1 (M1 to A305 residues) expressed in mammalian expression system assessed as residual binding level at 1 uM by Kinomescan method relative to control
[19] = target: Serine/threonine-protein kinase DCLK3 (Homo sapiens) (UniProt Q9C098); experiment: Binding affinity to wild-type human partial length DCAMKL3 (E140 to V628 residues) expressed in bacterial expression system assessed as residual binding level at 1 uM by Kinomescan method relative to control
Chain of Serine/threonine-protein kinase DCLK3 (Homo sapiens) (Q9C098 whole entry, the tested form may be a part): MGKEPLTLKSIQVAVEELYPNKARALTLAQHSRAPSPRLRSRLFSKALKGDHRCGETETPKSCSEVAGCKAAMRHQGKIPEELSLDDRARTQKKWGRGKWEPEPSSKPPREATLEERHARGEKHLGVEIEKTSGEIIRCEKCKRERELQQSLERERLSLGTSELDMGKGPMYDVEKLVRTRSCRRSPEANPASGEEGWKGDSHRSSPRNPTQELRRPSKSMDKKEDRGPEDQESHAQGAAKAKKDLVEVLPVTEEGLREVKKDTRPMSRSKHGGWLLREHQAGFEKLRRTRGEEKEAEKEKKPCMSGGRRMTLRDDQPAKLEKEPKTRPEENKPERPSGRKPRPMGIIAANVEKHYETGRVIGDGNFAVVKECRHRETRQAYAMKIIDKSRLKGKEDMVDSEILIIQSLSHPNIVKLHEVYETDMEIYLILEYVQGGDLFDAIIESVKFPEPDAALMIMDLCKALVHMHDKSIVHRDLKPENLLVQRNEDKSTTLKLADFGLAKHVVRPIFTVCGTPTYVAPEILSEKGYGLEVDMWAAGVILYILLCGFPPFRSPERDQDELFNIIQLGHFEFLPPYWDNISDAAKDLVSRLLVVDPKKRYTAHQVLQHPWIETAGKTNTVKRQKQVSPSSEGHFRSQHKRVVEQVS

[20] = target: Serine/threonine-protein kinase SIK2 (Homo sapiens) (UniProt Q9H0K1); experiment: Binding affinity to wild-type human full length SIK2 (M1 to N926 residues) expressed in bacterial expression system assessed as residual binding level at 1 uM by Kinomescan method relative to control
[21] = target: Dual specificity mitogen-activated protein kinase kinase 4 (Homo sapiens) (UniProt P45985); experiment: Binding affinity to wild-type human partial length MEK4 (S84 to D399 residues) expressed in mammalian expression system assessed as residual binding level at 1 uM by Kinomescan method relative to control
[22] = target: CDK4/Cyclin D3 (Homo sapiens) (UniProt P11802+P30281); experiment: Binding affinity to wild-type human full length CDK4/cyclinD3 (M1 to E303 residues) expressed in mammalian expression system assessed as residual binding level at 1 uM by Kinomescan method relative to control
[23] = target: Dual specificity protein kinase CLK1 (Homo sapiens) (UniProt P49759); experiment: Binding affinity to wild-type human full length CLK1 (M1 to I484 residues) expressed in bacterial expression system assessed as residual binding level at 1 uM by Kinomescan method relative to control
[24] = test system: Epidermal growth factor receptor (Homo sapiens), P00533 [T790M]; experiment: Binding affinity to human partial length EGFR T790M mutant (R669 to G1022 residues) expressed in mammalian expression system assessed as residual binding level at 1 uM by Kinomescan method relative to control

## CC(C)Nc1sc(C(=O)c2ccc(Cl)s2)c(N)c1C#N
[1]
  Activity: 100%
[2]
  Activity: 81%
[3]
  Activity: 81%
[4]
  Activity: 90%
[5]
  Activity: 100%
[6]
  Activity: 96%
[7]
  Activity: 100%
[8]
  Activity: 97%
[9]
  Activity: 73%
[10]
  Activity: 96%
[11]
  Activity: 56%
[12]
  Activity: 93%
[13]
  Activity: 84%
[14]
  Activity: 71%
[15]
  Activity: 79%
[16]
  Activity: 97%
[17]
  Activity: 78%
[18]
  Activity: 68%
[19]
  Activity: 100%
[20]
  Activity: 92%
[21]
  Activity: 82%
[22]
  Activity: 100%
[23]
  Activity: 70%
[24]
  Activity: 66%
